“Also recorded” adds a separate entry of the source.
Assays:
mice = conditions: cited from earlier work
[1] = tested on: tetracysteine-tagged protein; test: Binding/labeling of tetracysteine-tagged protein by bis-arsenical dyes (MALDI-MS); conditions: for binding to tetracysteine-tagged protein: MALDI-MS, canonical tetracysteine tag
HeLa cells = test: Intracellular staining of mammalian tissue culture cells (HeLa) with bis-arsenical dyes; type: cell-based; conditions: absence of tetracysteine-tagged proteins and thiol competitors
tetracysteine tag = conditions: FlAsH / tetracysteine tag; Adams et al. 2002; read-out: dissociation constant; cited from earlier work
[2] = tested on: tetracysteine-tagged firefly luciferase; test: BRET from tetracysteine-tagged firefly luciferase constructs to ReAsH; type: biochemical; conditions: for BRET: to ReAsH, purified TC-tagged luciferase constructs, Table 1; for efficiency of BRET (apparent): treatment with ReAsH
Description: Firefly luciferase fusion proteins with an optimized tetracysteine (TC) tag ([…]; SEQ ID NO:1) (Martin et al., Nature Biotechnology, 2005, 23:1308-14) fused onto either the amino (TCLuc1) or carboxy (TCLuc2) terminus of the luciferase protein (Promega's pGL3 (GenBank No. U47295.2)) were cloned and expressed (see list in Table 1). The proteins were expressed in E. Coli as GST fusions, purified by glutathione agarose affinity chromatography, and eluted as the TC-tagged protein by cleavage with PreScission™ protease.
The emission spectrum is sharpened, such that the maximum at 608 nm is actually higher than the 560 nm peak of luciferase (FIG. 3).
To help evaluate the role of distance and orientation on the BRET efficiency, additional N-terminal fusions of the TC tag were constructed (Table 1). […] The best-performing TCLuc1 fusion was cloned into pcDNA3.1 for expression in mammalian tissue culture cells. This construct lacks a C-terminal peroxisomal targeting sequence, and thus the expressed luciferase will localize to the cytoplasm.

Molecule	binding to tetracysteine-tagged protein [1]	intracellular staining (HeLa cells)	BRET [2]	efficiency of BRET (apparent) [2]	other results
Nc1ccc([As](=O)(O)O)cc1 [arsanilic acid]					LD50 (mice; mice): 248 mg/kg
CN(Cc1cnc2nc(N)nc(N)c2n1)c1ccc(C(=O)N[C@@H](CCC(=O)O)C(=O)O)cc1 [methotrexate]					LD50 relative to melarsonyl (mice; mouse, in vivo): two-fold lower LD50 than melarsonyl
FlAsH [reference compound]	binding	bright intracellular staining			Kd (tetracysteine tag): ~4 pM
O=c1ccc2nc3ccc(O)c([As]4SCCS4)c3oc-2c1[As]1SCCS1 [ReAsH, reference compound]	binding	bright intracellular staining			
bis-arsenical oxazine 170 [As2Ox170]	fails to bind; also recorded: lack of binding	intracellular staining; also recorded: highly fluorescent within cells			fluorescent labeling of tetracysteine-tagged proteins [1]: fails to fluorescently label
TCLuc4: N-terminal TC-tagged luciferase with truncated amino acids between tag and luciferase, SEQ ID NO:5 (protein) GPLGSFLNCCPGCCMEDAKNIKKGPAPFYPLEDGTAGEQLHKAMKRYALVPGTIAFTDAHIEVDITYAEYFEMSVRLAEAMKRYGLNTNHRIVVCSENSLQFFMPVLGALFIGVAVAPANDIYNERELLNSMGISQPTVVFVSKKGLQKILNVQKKLPIIQKIIIMDSKTDYQGFQSMYTFVTSHLPPGFNEYDFVPESFDRDKTIALIMNSSGSTGLPKGVALPHRTACVRFSHARDPIFGNQIIPDTAILSVVPFHHGFGMFTTLGYLICGFRVVLMYRFEEELFLRSLQDYKIQSALLVPTLFSFFAKSTLIDKYDLSNLHEIASGGAPLSKEVGEAVAKRFHLPGIRQGYGLTETTSAILITPEGDDKPGAVGKVVPFFEAKVVDLDTGKTLGVNQRGELCVRGPMIMSGYVNNPEATNALIDKDGWLHSGDIAYWDEDEHFFIVDRLKSLIKYKGYQVAPAELESILLQHPNIFDAGVAGLPDDDAGELPAAVVVLEHGKTMTEKEIVDYVASQVTTAKKLRGGVVFVDEVPKGLTGKLDARKIREILIKAKKGGKIAV			quenches	quenching of luciferase emission	
TCLuc1: Firefly luciferase with optimized tetracysteine tag fused at the amino terminus, SEQ ID NO:2 (protein) GPLGSFLNCCPGCCMEPGSMEDAKNIKKGPAPFYPLEDGTAGEQLHKAMKRYALVPGTIAFTDAHIEVDITYAEYFEMSVRLAEAMKRYGLNTNHRIVVCSENSLQFFMPVLGALFIGVAVAPANDIYNERELLNSMGISQPTVVFVSKKGLQKILNVQKKLPIIQKIIIMDSKTDYQGFQSMYTFVTSHLPPGFNEYDFVPESFDRDKTIALIMNSSGSTGLPKGVALPHRTACVRFSHARDPIFGNQIIPDTAILSVVPFHHGFGMFTTLGYLICGFRVVLMYRFEEELFLRSLQDYKIQSALLVPTLFSFFAKSTLIDKYDLSNLHEIASGGAPLSKEVGEAVAKRFHLPGIRQGYGLTETTSAILITPEGDDKPGAVGKVVPFFEAKVVDLDTGKTLGVNQRGELCVRGPMIMSGYVNNPEATNALIDKDGWLHSGDIAYWDEDEHFFIVDRLKSLIKYKGYQVAPAELESILLQHPNIFDAGVAGLPDDDAGELPAAVVVLEHGKTMTEKEIVDYVASQVTTAKKLRGGVVFVDEVPKGLTGKLDARKIREILIKAKKGGKIAV			~80%	about 80%	
TCLuc2: Firefly luciferase with optimized tetracysteine tag fused at the carboxy terminus, SEQ ID NO:3 (protein) GPLGSMEDAKNIKKGPAPFYPLEDGTAGEQLHKAMKRYALVPGTIAFTDAHIEVDITYAEYFEMSVRLAEAMKRYGLNTNHRIVVCSENSLQFFMPVLGALFIGVAVAPANDIYNERELLNSMGISQPTVVFVSKKGLQKILNVQKKLPIIQKIIIMDSKTDYQGFQSMYTFVTSHLPPGFNEYDFVPESFDRDKTIALIMNSSGSTGLPKGVALPHRTACVRFSHARDPIFGNQIIPDTAILSVVPFHHGFGMFTTLGYLICGFRVVLMYRFEEELFLRSLQDYKIQSALLVPTLFSFFAKSTLIDKYDLSNLHEIASGGAPLSKEVGEAVAKRFHLPGIRQGYGLTETTSAILITPEGDDKPGAVGKVVPFFEAKVVDLDTGKTLGVNQRGELCVRGPMIMSGYVNNPEATNALIDKDGWLHSGDIAYWDEDEHFFIVDRLKSLIKYKGYQVAPAELESILLQHPNIFDAGVAGLPDDDAGELPAAVVVLEHGKTMTEKEIVDYVASQVTTAKKLRGGVVFVDEVPKGLTGKLDARKIREILIKAKKGGKIAVFLNCCPGCCMEP			~50%	about 50%	
TCLuc5: N-terminal TC-tagged Δ2-luciferase, truncated, SEQ ID NO:6 (protein) GPLGSFLNCCPGCCDAKNIKKGPAPFYPLEDGTAGEQLHKAMKRYALVPGTIAFTDAHIEVDITYAEYFEMSVRLAEAMKRYGLNTNHRIVVCSENSLQFFMPVLGALFIGVAVAPANDIYNERELLNSMGISQPTVVFVSKKGLQKILNVQKKLPIIQKIIIMDSKTDYQGFQSMYTFVTSHLPPGFNEYDFVPESFDRDKTIALIMNSSGSTGLPKGVALPHRTACVRFSHARDPIFGNQIIPDTAILSVVPFHHGFGMFTTLGYLICGFRVVLMYRFEEELFLRSLQDYKIQSALLVPTLFSFFAKSTLIDKYDLSNLHEIASGGAPLSKEVGEAVAKRFHLPGIRQGYGLTETTSAILITPEGDDKPGAVGKVVPFFEAKVVDLDTGKTLGVNQRGELCVRGPMIMSGYVNNPEATNALIDKDGWLHSGDIAYWDEDEHFFIVDRLKSLIKYKGYQVAPAELESILLQHPNIFDAGVAGLPDDDAGELPAAVVVLEHGKTMTEKEIVDYVASQVTTAKKLRGGVVFVDEVPKGLTGKLDARKIREILIKAKKGGKIAV			inactive	complete loss of luciferase activity	
TCLuc3: N-terminal TC-tagged luciferase with flexible (Gly-Ser)3 repeat spacer, SEQ ID NO:4 (protein) GPLGSFLNCCPGCCMEPGSGSGSGSMEDAKNIKKGPAPFYPLEDGTAGEQLHKAMKRYALVPGTIAFTDAHIEVDITYAEYFEMSVRLAEAMKRYGLNTNHRIVVCSENSLQFFMPVLGALFIGVAVAPANDIYNERELLNSMGISQPTVVFVSKKGLQKILNVQKKLPIIQKIIIMDSKTDYQGFQSMYTFVTSHLPPGFNEYDFVPESFDRDKTIALIMNSSGSTGLPKGVALPHRTACVRFSHARDPIFGNQIIPDTAILSVVPFHHGFGMFTTLGYLICGFRVVLMYRFEEELFLRSLQDYKIQSALLVPTLFSFFAKSTLIDKYDLSNLHEIASGGAPLSKEVGEAVAKRFHLPGIRQGYGLTETTSAILITPEGDDKPGAVGKVVPFFEAKVVDLDTGKTLGVNQRGELCVRGPMIMSGYVNNPEATNALIDKDGWLHSGDIAYWDEDEHFFIVDRLKSLIKYKGYQVAPAELESILLQHPNIFDAGVAGLPDDDAGELPAAVVVLEHGKTMTEKEIVDYVASQVTTAKKLRGGVVFVDEVPKGLTGKLDARKIREILIKAKKGGKIAV			~50%	about 50%	

Source: patent publication US20080299592A1, “Red-Shifted Luciferase” (priority 2007, published 2008)
